Measurements reported in ChEMBL document CHEMBL1136099, “Heterocyclic thrombin inhibitors. Part 1: design and synthesis of amidino-phenoxy quinoline derivatives” (Bioorg Med Chem Lett, 2003).

Experiments:
Prothrombin = Prothrombin (Homo sapiens, UniProt P00734); experiment: In vitro inhibitory activity against thrombin in human plasma; assay type: cell-free
[1] = Partition coefficient (logP); assay type: physicochemical; conditions: octanol/water
Homo sapiens = species: Homo sapiens; experiment: Effective dose (in vitro) using activated partial thromboplastin time (aPTT); assay type: functional
Plasminogen = Plasminogen (Homo sapiens, UniProt P00747); experiment: Inhibitory activity against plasmin in human plasma
Plasminogen, sequence (P00747 97-580 limits assumed): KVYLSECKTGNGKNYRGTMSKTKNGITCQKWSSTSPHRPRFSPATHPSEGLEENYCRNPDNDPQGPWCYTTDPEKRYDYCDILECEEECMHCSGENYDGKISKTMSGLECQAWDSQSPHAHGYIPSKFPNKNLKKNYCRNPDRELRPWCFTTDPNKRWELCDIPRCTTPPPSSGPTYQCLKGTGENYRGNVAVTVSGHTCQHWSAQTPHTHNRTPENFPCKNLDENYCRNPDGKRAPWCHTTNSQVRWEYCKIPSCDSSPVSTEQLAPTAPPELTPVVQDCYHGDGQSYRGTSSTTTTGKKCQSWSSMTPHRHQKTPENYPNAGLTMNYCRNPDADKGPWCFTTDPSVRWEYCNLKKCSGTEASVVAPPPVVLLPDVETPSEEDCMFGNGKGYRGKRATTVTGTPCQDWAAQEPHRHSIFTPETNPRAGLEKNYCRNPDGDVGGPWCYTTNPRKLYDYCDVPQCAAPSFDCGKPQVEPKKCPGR
Plasminogen, sequence (P00747 581-810 limits assumed): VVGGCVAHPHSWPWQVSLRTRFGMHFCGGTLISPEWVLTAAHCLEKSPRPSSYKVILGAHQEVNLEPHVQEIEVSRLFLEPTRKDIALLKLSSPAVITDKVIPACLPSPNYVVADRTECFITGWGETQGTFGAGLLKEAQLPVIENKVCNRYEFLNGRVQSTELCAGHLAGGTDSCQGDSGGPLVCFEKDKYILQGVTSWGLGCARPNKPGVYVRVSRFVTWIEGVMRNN

Serine protease 1 = Serine protease 1 (Homo sapiens, UniProt P07477); experiment: Inhibitory activity against trypsin
Serine protease 1, sequence (P07477 whole entry): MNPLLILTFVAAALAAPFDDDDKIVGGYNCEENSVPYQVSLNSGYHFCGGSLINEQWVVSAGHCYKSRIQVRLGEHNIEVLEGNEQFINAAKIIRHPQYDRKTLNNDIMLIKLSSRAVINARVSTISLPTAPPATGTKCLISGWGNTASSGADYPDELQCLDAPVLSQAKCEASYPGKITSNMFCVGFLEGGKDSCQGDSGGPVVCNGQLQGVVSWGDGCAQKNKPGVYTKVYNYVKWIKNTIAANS

Coagulation factor X = Coagulation factor X (Homo sapiens, UniProt P00742); experiment: Inhibitory activity against coagulation factor X in human plasma; assay type: cell-free
Coagulation factor X, sequence (P00742 41-179 limits assumed): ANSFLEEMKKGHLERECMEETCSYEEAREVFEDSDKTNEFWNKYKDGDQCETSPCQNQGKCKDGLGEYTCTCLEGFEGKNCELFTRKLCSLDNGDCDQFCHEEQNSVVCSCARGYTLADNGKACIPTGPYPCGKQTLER
Coagulation factor X, sequence (P00742 235-488 limits assumed): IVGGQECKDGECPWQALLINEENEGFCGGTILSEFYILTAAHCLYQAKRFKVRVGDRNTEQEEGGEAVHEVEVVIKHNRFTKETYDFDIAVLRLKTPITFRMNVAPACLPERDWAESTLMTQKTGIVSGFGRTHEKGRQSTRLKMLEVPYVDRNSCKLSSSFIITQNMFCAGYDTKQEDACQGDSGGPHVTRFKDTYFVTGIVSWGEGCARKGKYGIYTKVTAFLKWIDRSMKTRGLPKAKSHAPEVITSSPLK

SMILES	IC50 (Prothrombin) [nM]	logP [1]	ED200 (Homo sapiens) [µM]	IC50 (Plasminogen) [nM]	IC50 (Serine protease 1) [nM]	IC50 (Coagulation factor X) [nM]
Cc1ccc(C(=O)NCC(=O)O)cc1-c1ccc2c(C)cc(Oc3ccc(C(=N)N)cc3)nc2c1	8	0.5	0.9			
Cc1ccccc1-c1ccc2c(C)cc(Nc3ccc(C(=N)N)cc3)nc2c1	37			14800	3500	
CCOC(=O)C(C)(C)c1ccc2c(C)cc(Oc3ccc(C(=N)N)cc3)nc2c1	6			20000	2400	
CCOC(=O)CNC(=O)c1ccc(C)c(-c2ccc3c(C)cc(Oc4ccc(C(=N)N)cc4)nc3c2)c1	10	1.3	3.3			
Cc1cc(Oc2ccc(C(=N)N)cc2)nc2cc(Br)ccc12	66					
CCOC(=O)C1(c2ccc3c(C)cc(Oc4ccc(C(=N)N)cc4)nc3c2)CCCC1	3			5800	560	1500
CCOC(=O)C(CC)c1ccc2c(C)cc(Oc3ccc(C(=N)N)cc3)nc2c1 (stereo not given)	10					
Cc1ccc(-c2ccc3c(C)cc(Oc4ccc(C(=N)N)cc4)nc3c2)cc1	18			12200	4200	
CCOC(=O)/C=C(\C)c1ccc2c(C)cc(Oc3ccc(C(=N)N)cc3)nc2c1	16			6400	6700	
Cc1ccccc1-c1ccc2c(C)cc(Oc3ccc(C(=N)N)cc3)nc2c1	6	> 3.5	7.9	8300	2900	
C/C(=C\C(=O)O)c1ccc2c(C)cc(Oc3ccc(C(=N)N)cc3)nc2c1	600			25000	8100	
CCOC(=O)Cc1ccc2c(C)cc(Oc3ccc(C(=N)N)cc3)nc2c1	92					
Cc1cc(Nc2ccc(C(=N)N)cc2)nc2cc(Br)ccc12	87					
Cc1cc(Sc2ccc(C(=N)N)cc2)nc2cc(Br)ccc12	196					
